Laboratory results: patent publication US20230159496A1, “COMPOUNDS AND METHODS FOR MODULATING SPLICING” (REMIX THERAPEUTICS INC., priority 2020, published 2023)
Counter-ions that a name gives are not always drawn. Like-named read-outs stand apart in the source and are kept apart here.

Experiments:
Format in all cases: cell-based
[1] = test system: HTT CJ mRNA; experiment: Gene panel canonical junction qPCR assay, HTT; settings: read-out: HTT IC50
Experimental: (§1) The expression of a target mRNA was measured by detecting the formation of an exon-exon junction in the canonical transcript (CJ). A compound mediated exon-inclusion event was detected by observing an increase in formation of a new junction with an alternative exon (AJ). Real-time qPCR assays were used to detect these splicing switches and interrogate the potency of various compounds towards different target genes. A high-throughput real time quantitative PCR (RT-qPCR) assay was developed to measure these two isoforms of the mRNA (CJ and AJ) for an exemplary gene, HTT, together with a control housekeeping gene, GAPDH or GUSB or PPIA, used for normalization. Briefly, the A673 or K562 cell line was treated with various compounds described herein (e.g., compounds of Formula (I)). After treatment, the levels of the HTT mRNA targets were determined from each sample of cell lysate by cDNA synthesis followed by qPCR. The A673 cell line was cultured in DMEM with 10% FBS. Cells were diluted with full growth media and plated in a 96-well plate (15,000 cells in 100 ul media per well). The plate was incubated at 37° C. with 5% CO2 for 24 hours to allow cells to adhere. An 11-point 3-fold serial dilution of the compounds was made in DMSO then diluted in media in an intermediate plate. Compounds were transferred from the intermediate plate to the cell plate with the top dose at a final concentration of 10 uM in the well. Final DMSO concentration was kept at or below 0.25%. The cell plate was returned to the incubator at 37° C. with 5% CO2 for an additional 24 hours. The K562 cell line was cultured in IMDM with 10% FBS. For K562, cells were diluted with full growth media and plated in either a 96-well plate (50,000 cells in 50 uL media per well) or a 384-well plate (8,000-40,000 cells in 45 uL media per well). An 11-point 3-fold serial dilution of the compounds were made in DMSO then diluted in media in an intermediate plate. Compound was transferred from the intermediate plate to the cell plate with the top dose at a final concentration of 10 uM in the well. Final DMSO concentration was kept at or below 0.25%. Final volume was 100 uL for 96-well plate and 50 uL for 384-well plate. The cell plate was then placed in an incubator at 37° C. with 5% CO2 for 24 hours. The cells were then gently washed with 50 uL-100 uL cold PBS before proceeding to addition of lysis buffer. 30 uL-50 uL of room temperature lysis buffer with DNAse I (and optionally RNAsin) was added to each well. Cells were shaken/mixed thoroughly at room temperature for 5-10 minutes for lysis to take place and then 3 uL-5 uL of room temperature stop solution was added and wells were shaken/mixed again. After 2-5 minutes, the cell lysate plate was transferred to ice for RT-qPCR reaction setup. The lysates could also be frozen at −80° C. for later use. In some cases, a direct lysis buffer was used. An appropriate volume of 3× lysis buffer (10 mM Tris, 150 mM NaCl, 1.5%-2.5% Igepal and 0.1-1 U/uL RNAsin, pH 7.4) was directly added to either K562 or A673 cells in media and mixed by pipetting 3 times. The plates were then incubated at room temperature with shaking/rocking for 20-50 minutes to allow for lysis to take place. After this time, the cell lysate plate was transferred to ice to set up for the RT-qPCR reactions. The lysates could also be frozen at −80° C. for later use. To set up 10 uL RT-qPCR reactions, cell lysates were transferred to 384-well qPCR plates containing the master mix according to the table below. The plates were sealed, gently vortexed, and spun down before the run. The volumes were adjusted accordingly in some instances where the reaction was carried in 20 uL. The table below summarizes the components of the RT-qPCR reactions: The RT-qPCR reaction was performed using a QuantStudio (ThermoFisher) under the following fast cycling conditions. All samples and standards were analyzed at least in duplicate.

[2] = test system: HTT mRNA; experiment: Splicing assay (RT-qPCR) monitoring HTT canonical junction (CJ) and alternative junction (AJ) mRNA isoforms
Experimental: Compounds described herein were used to modulate RNA transcript abundance in cells. The expression of a target mRNA was measured by detecting the formation of an exon-exon junction in the canonical transcript (CJ). A compound mediated exon-inclusion event was detected by observing an increase in formation of a new junction with an alternative exon (AJ). Real-time qPCR assays were used to detect these splicing switches and interrogate the potency of various compounds towards different target genes. A high-throughput real time quantitative PCR (RT-qPCR) assay was developed to measure these two isoforms of the mRNA (CJ and AJ) for an exemplary gene, HTT, together with a control housekeeping gene, GAPDH or GUSB or PPIA, used for normalization. Briefly, the A673 or K562 cell line was treated with various compounds described herein (e.g., compounds of Formula (I)). After treatment, the levels of the HTT mRNA targets were determined from each sample of cell lysate by cDNA synthesis followed by qPCR.
• Cells-to-CT 1-step kit: ThermoFisher A25602, Cells-to-CT lysis reagent: ThermoFisher 4391851C, TaqMan™ Fast Virus 1-Step Master Mix: ThermoFisher 4444436 • GAPDH: VIC-PL, ThermoFisher 4326317E (Assay: Hs99999905_m1)—used for K562/suspension cell lines • GUSB: VIC-PL, ThermoFisher 4326320E (Assay: Hs99999908_m1)—used for K562/suspension cell lines • PPIA: VIC-PL, ThermoFisher 4326316E (Assay: Hs99999904_m1) — used for A673/adherent cell lines
The A673 cell line was cultured in DMEM with 10% FBS. Cells were diluted with full growth media and plated in a 96-well plate (15,000 cells in 100 ul media per well). The plate was incubated at 37° C. with 5% CO2 for 24 hours to allow cells to adhere. An 11-point 3-fold serial dilution of the compounds was made in DMSO then diluted in media in an intermediate plate. Compounds were transferred from the intermediate plate to the cell plate with the top dose at a final concentration of 10 uM in the well. Final DMSO concentration was kept at or below 0.25%. The cell plate was returned to the incubator at 37° C. with 5% CO2 for an additional 24 hours.
The K562 cell line was cultured in IMDM with 10% FBS. For K562, cells were diluted with full growth media and plated in either a 96-well plate (50,000 cells in 50 uL media per well) or a 384-well plate (8,000-40,000 cells in 45 uL media per well). An 11-point 3-fold serial dilution of the compounds were made in DMSO then diluted in media in an intermediate plate. Compound was transferred from the intermediate plate to the cell plate with the top dose at a final concentration of 10 uM in the well. Final DMSO concentration was kept at or below 0.25%. Final volume was 100 uL for 96-well plate and 50 uL for 384-well plate. The cell plate was then placed in an incubator at 37° C. with 5% CO2 for 24 hours.
The cells were then gently washed with 50 uL-100 uL cold PBS before proceeding to addition of lysis buffer. 30 uL-50 uL of room temperature lysis buffer with DNAse I (and optionally RNAsin) was added to each well. Cells were shaken/mixed thoroughly at room temperature for 5-10 minutes for lysis to take place and then 3 uL-5 uL of room temperature stop solution was added and wells were shaken/mixed again. After 2-5 minutes, the cell lysate plate was transferred to ice for RT-qPCR reaction setup. The lysates could also be frozen at −80° C. for later use.
In some cases, a direct lysis buffer was used. An appropriate volume of 3× lysis buffer (10 mM Tris, 150 mM NaCl, 1.5%-2.5% Igepal and 0.1-1 U/uL RNAsin, pH 7.4) was directly added to either K562 or A673 cells in media and mixed by pipetting 3 times. The plates were then incubated at room temperature with shaking/rocking for 20-50 minutes to allow for lysis to take place. After this time, the cell lysate plate was transferred to ice to set up for the RT-qPCR reactions. The lysates could also be frozen at −80° C. for later use. […]

[3] = test system: SMN2 CJ mRNA; experiment: Gene panel canonical junction qPCR assay, SMN2; settings: read-out: SMN2 IC50
Experimental: as §1

[4] = test system: Target C CJ mRNA; experiment: Gene panel canonical junction qPCR assay, Target C; settings: read-out: Target C IC50
Experimental: as §1

[5] = decrease in CJ mRNA levels, gene panel
[6] = decrease in CJ mRNA (50% response), A673 or K562 cells, 24 h treatment, top dose 10 uM, read-out: HTT CJ AC50
[7] = increase in AJ mRNA (50% response), A673 or K562 cells, 24 h treatment, top dose 10 uM, read-out: HTT AJ AC50

IC50 [1, 5] | IC50 [3, 5] | IC50 [4, 5] | Structure (SMILES) | AC50 [2, 6] | AC50 [2, 7] | IC50 [1] | AC50 ([2]; 24 h, read-out: HTT AJ AC50 (nM)) | AC50 ([2]; 24 h, read-out: HTT CJ AC50 (nM)) | IC50 [3] | IC50 [4]
– | – | – | CN1CCC(Nc2ccc3c(=O)n(-c4ccc5nn(C)cc5c4)cnc3c2)CC1 [Compound 163, 3-(2-methyl-2H-indazol-5-yl)-7-((1-methylpiperidin-4-yl)amino)quinazolin-4(3H)-one] | – | – | > 10 µM | > 10000 nM | > 10000 nM | > 10 µM | > 10 µM
1 to 10 µM | 1 to 10 µM | 1 to 10 µM | Cc1cc(-c2ccc3nc(N4CCNCC4)[nH]c(=O)c3c2)cc2cn(C)nc12 [Compound 166, 6-(2,7-dimethyl-2H-indazol-5-yl)-2-(piperazin-1-yl)quinazolin-4(3H)-one] | 1000 to 10000 nM | 1000 to 10000 nM | – | – | – | – | –
> 10 µM | > 10 µM | > 10 µM | Cc1cc(-c2ccc3nc(NC4CCN(C)CC4)[nH]c(=O)c3c2)cc2cn(C)nc12 [Compound 167] | > 10000 nM | > 10000 nM | – | – | – | – | –
> 10 µM | > 10 µM | > 10 µM | Cn1cc2cc(-n3cnc4cc(C5CCNCC5)ccc4c3=O)ccc2n1 [Compound 172, 3-(2-methyl-2H-indazol-5-yl)-7-(piperidin-4-yl)quinazolin-4(3H)-one] | > 10000 nM | > 10000 nM | – | – | – | – | –
1 to 10 µM | 1 to 10 µM | > 10 µM | Cc1cc(-c2ccc3c(=O)n(N4CCN(C)CC4)cnc3c2)cc2cn(C)nc12 [Compound 175, 7-(2,7-dimethyl-2H-indazol-5-yl)-3-(4-methylpiperazin-1-yl)quinazolin-4(3H)-one] | > 10000 nM | 1000 to 10000 nM | – | – | – | – | –
1 to 10 µM | 0.1 to 1 µM | 1 to 10 µM | Cc1cn2nc(-c3ccc4c(=O)n(C5CCN(C)CC5)cnc4c3)cc(C)c2n1 [Compound 176, 7-(2,8-dimethylimidazo[1,2-b]pyridazin-6-yl)-3-(1-methylpiperidin-4-yl)quinazolin-4(3H)-one] | 1000 to 10000 nM | 1000 to 10000 nM | – | – | – | – | –
> 10 µM | > 10 µM | 1 to 10 µM | CN1CCC(c2ccc3c(=O)n(-c4ccc5nn(C)cc5c4)cnc3c2)CC1 [Compound 177, 3-(2-methyl-2H-indazol-5-yl)-7-(1-methylpiperidin-4-yl)quinazolin-4(3H)-one] | > 10000 nM | > 10000 nM | – | – | – | – | –
> 10 µM | > 10 µM | > 10 µM | CN1CCN(c2ccc3c(=O)n(-c4ccc5cn(C)nc5c4)cnc3c2)CC1 [Compound 178, 3-(2-methyl-2H-indazol-6-yl)-7-(4-methylpiperazin-1-yl)quinazolin-4(3H)-one] | > 10000 nM | > 10000 nM | – | – | – | – | –
> 10 µM | 1 to 10 µM | > 10 µM | Cc1cc(-c2ccc3c(=O)n(C4CC(C)(C)NC(C)(C)C4)cnc3n2)cc2cn(C)nc12 [Compound 179] | > 10000 nM | > 10000 nM | – | – | – | – | –
0.1 to 1 µM | < 0.1 µM | 0.1 to 1 µM | Cc1cn2nc(-c3ccc4c(=O)n(C5CCNCC5)cnc4c3)cc(C)c2n1 [Compound 181] | 100 to 1000 nM | 100 to 1000 nM | – | – | – | – | –

Structure (SMILES) | IC50 [1, 5] | IC50 [3, 5] | IC50 [4, 5] | AC50 [2, 6] | AC50 [2, 7] | IC50 [1] | AC50 ([2]; 24 h, read-out: HTT AJ AC50 (nM)) | AC50 ([2]; 24 h, read-out: HTT CJ AC50 (nM)) | IC50 [3] | IC50 [4]
Cn1cc2cc(-n3cnc4cc(C5=CC6CCC(C5)N6)ccc4c3=O)ccc2n1 (centres unmarked) [Compound 160, 7-(8-azabicyclo[3.2.1]oct-2-en-3-yl)-3-(2-methyl-2H-indazol-5-yl)quinazolin-4(3H)-one] | > 10 µM | > 10 µM | > 10 µM | > 10000 nM | > 10000 nM | – | – | – | – | –
CN1C2C=C(c3ccc4c(=O)n(-c5ccc6nn(C)cc6c5)cnc4c3)CC1CC2 (centres unmarked) [Compound 161, 3-(2-methyl-2H-indazol-5-yl)-7-(8-methyl-8-azabicyclo[3.2.1]oct-2-en-3-yl)quinazolin-4(3H)-one] | > 10 µM | > 10 µM | > 10 µM | > 10000 nM | > 10000 nM | – | – | – | – | –
CN(c1ccc2c(=O)n(-c3ccc4nn(C)cc4c3)cnc2c1)C1CCNCC1 [Compound 180, 7-(methyl(piperidin-4-yl)amino)-3-(2-methyl-2H-indazol-5-yl)quinazolin-4(3H)-one, hydrochloride] | > 10 µM | > 10 µM | 1 to 10 µM | > 10000 nM | > 10000 nM | – | – | – | – | –
